Values belong to the molecule of their own block, whether it stands above or below them.
Experiments:
CoxD [1] = target: T1, CoxD (Afipia carboxidovorans, UniProt Q51326); assay: inhibition of ATP hydrolysis, ADP release; format: biochemical; conditions: 100 mM Tris/acetate pH 8.0, 1 mM Mg-acetate, 25 °C; refolded enzyme; 1 mM ATP; competes with ATP; slowly hydrolysable analogue
T1 construct: mainly hexamer, also dimer and tetramer (homo-oligomer)
T1 sequence (Q51326 1-295): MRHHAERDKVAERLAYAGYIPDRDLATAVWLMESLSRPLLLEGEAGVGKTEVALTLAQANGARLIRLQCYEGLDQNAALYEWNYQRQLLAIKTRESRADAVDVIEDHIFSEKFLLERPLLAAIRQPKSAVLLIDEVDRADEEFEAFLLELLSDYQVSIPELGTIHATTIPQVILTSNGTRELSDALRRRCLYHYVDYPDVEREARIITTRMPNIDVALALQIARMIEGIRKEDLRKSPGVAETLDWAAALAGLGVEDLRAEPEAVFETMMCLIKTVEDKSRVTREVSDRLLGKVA

CoxD [2] = target: T1, CoxD; assay: GTP hydrolysis, inorganic phosphate release; format: biochemical; conditions: 100 mM Tris/acetate pH 8.0, 1 mM Na2GTP, 1 mM Mg-acetate, 25 °C; weak side activity
purified protein = substrate: Nc1ncnc2c1ncn2[C@@H]1O[C@H](COP(=O)(O)OP(=O)(O)OP(=O)(O)O)[C@@H](O)[C@H]1O; assay: purified protein; conditions: 100 mM Tris/acetate pH 8.0, 1 mM Mg-acetate, 25 °C, refolded enzyme

Molecule: Nc1ncnc2c1ncn2[C@@H]1O[C@H](COP(=O)(O)OP(=O)(O)OP(O)(O)=S)[C@@H](O)[C@H]1O [ATP-γ-S]
- inhibition of ATP hydrolysis (qualitative) (CoxD [1]): It very effectively competed with ATP for CoxD

- GTP hydrolysis, inorganic phosphate release (CoxD [2]): formed from GTP
Molecule: Nc1nc2c(ncn2[C@@H]2O[C@H](COP(=O)(O)OP(=O)(O)OP(=O)(O)O)[C@@H](O)[C@H]2O)c(=O)[nH]1 [GTP]

B1: CoxD (Afipia carboxidovorans OM5) (protein)
chain: MRHHAERDKVAERLAYAGYIPDRDLATAVWLMESLSRPLLLEGEAGVGKTEVALTLAQANGARLIRLQCYEGLDQNAALYEWNYQRQLLAIKTRESRADAVDVIEDHIFSEKFLLERPLLAAIRQPKSAVLLIDEVDRADEEFEAFLLELLSDYQVSIPELGTIHATTIPQVILTSNGTRELSDALRRRCLYHYVDYPDVEREARIITTRMPNIDVALALQIARMIEGIRKEDLRKSPGVAETLDWAAALAGLGVEDLRAEPEAVFETMMCLIKTVEDKSRVTREVSDRLLGKVA
- Km (purified protein): 690 ± 140 µM

— paper PMC3471820, “The CoxD Protein, a Novel AAA+ ATPase Involved in Metal Cluster Assembly: Hydrolysis of Nucleotide-Triphosphates and Oligomerization” (PLoS ONE, 2012)
